System: 855422-203-R-J1-PDC complex spheroids, viability
Test: Anticancer human tumor 855422-203-R-J1-PDC patient-derived bladder carcinoma cell line growth inhibition [CLK]
Conditions: for IC50: curve of first compound; for viability, T/C: stronger effect = lower value
In short: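 Multi-cell-type spheroids combined patient-derived tumor cells with HUVEC endothelial cells and human mesenchymal stem cells. Paired agents were dosed in half-log steps down from about clinical Cmax, or from 10 microM where Cmax was unknown.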

[1] = second compound 0.0316 µM, first compound 0.0316 µM
[2] = second compound 0.0316 µM, first compound 0.1 µM
[3] = second compound 0.0316 µM, first compound 0.316 µM
[4] = second compound 0.0316 µM, first compound 1 µM
[5] = second compound 0.0316 µM, first compound 3.16 µM
[6] = second compound 0.0316 µM, first compound 10 µM
[7] = second compound 0.1 µM, first compound 0.0316 µM
[8] = second compound 0.1 µM, first compound 0.1 µM
[9] = second compound 0.1 µM, first compound 0.316 µM
[10] = second compound 0.1 µM, first compound 1 µM
[11] = second compound 0.1 µM, first compound 3.16 µM
[12] = second compound 0.1 µM, first compound 10 µM
[13] = second compound 0.316 µM, first compound 0.0316 µM
[14] = second compound 0.316 µM, first compound 0.1 µM
[15] = second compound 0.316 µM, first compound 0.316 µM
[16] = second compound 0.316 µM, first compound 1 µM
[17] = second compound 0.316 µM, first compound 3.16 µM
[18] = second compound 0.316 µM, first compound 10 µM
[19] = second compound 1 µM, first compound 0.0316 µM
[20] = second compound 1 µM, first compound 0.1 µM
[21] = second compound 1 µM, first compound 0.316 µM
[22] = second compound 1 µM, first compound 1 µM
[23] = second compound 1 µM, first compound 3.16 µM
[24] = second compound 1 µM, first compound 10 µM
[25] = second compound 3.16 µM, first compound 0.0316 µM
[26] = second compound 3.16 µM, first compound 0.1 µM
[27] = second compound 3.16 µM, first compound 0.316 µM
[28] = second compound 3.16 µM, first compound 1 µM
[29] = second compound 3.16 µM, first compound 3.16 µM
[30] = second compound 3.16 µM, first compound 10 µM
[31] = second compound 10 µM, first compound 0.0316 µM
[32] = second compound 10 µM, first compound 0.1 µM
[33] = second compound 10 µM, first compound 0.316 µM
[34] = second compound 10 µM, first compound 1 µM
[35] = second compound 10 µM, first compound 3.16 µM
[36] = second compound 10 µM, first compound 10 µM
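Also: spheroids exposed to drugs for seven days before readout.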
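For viability, T/C in this document: 100% = DMSO vehicle control wells.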

SMILES: CC(CO)NC(=O)c1cc(-c2ccc(Cl)cc2)nn(-c2cnn(C)c2)c1=O (centres undefined) + CN1CCN(c2cc(C(=O)Nc3cc4cc(-c5cnn(C)c5)ccc4cn3)ccn2)CC1
- IC50 (second compound 0.0316 µM): > 10000 nM
- IC50 (second compound 0.1 µM): > 10000 nM
- IC50 (second compound 0.316 µM): < 31.6 nM
- IC50 (second compound 1 µM): < 31.6 nM
- IC50 (second compound 3.16 µM): < 31.6 nM
- IC50 (second compound 10 µM): < 31.6 nM
- viability, T/C [1]: 85.4%
- viability, T/C [2]: 97.9%
- viability, T/C [3]: 95.9%
- viability, T/C [4]: 104%
- viability, T/C [5]: 101%
- viability, T/C [6]: 90.2%
- viability, T/C [7]: 72.6%
- viability, T/C [8]: 83.2%
- viability, T/C [9]: 77.1%
- viability, T/C [10]: 93.9%
- viability, T/C [11]: 90.5%
- viability, T/C [12]: 69.4%
- viability, T/C [13]: 8.6%
- viability, T/C [14]: 12.4%
- viability, T/C [15]: 11.9%
- viability, T/C [16]: 12.4%
- viability, T/C [17]: 13.4%
- viability, T/C [18]: 9.74%
- viability, T/C [19]: 0.24%
- viability, T/C [20]: 0.3%
- viability, T/C [21]: 0.22%
- viability, T/C [22]: 0.28%
- viability, T/C [23]: 0.25%
- viability, T/C [24]: 0.24%
- viability, T/C [25]: 2.96%
- viability, T/C [26]: 0.65%
- viability, T/C [27]: 0.95%
- viability, T/C [28]: 0.69%
- viability, T/C [29]: 1.1%
- viability, T/C [30]: 0.53%
- viability, T/C [31]: 0.44%
- viability, T/C [32]: 0.45%
- viability, T/C [33]: 0.33%
- viability, T/C [34]: 1.12%
- viability, T/C [35]: 1.09%
- viability, T/C [36]: 0.43%

SMILES: CC(Nc1ccc2c(c1)OCCn1cc(N3C(=O)OCC3C(F)F)nc1-2)C(N)=O (centres undefined) + CN1CCN(c2cc(C(=O)Nc3cc4cc(-c5cnn(C)c5)ccc4cn3)ccn2)CC1
- IC50 (second compound 0.0316 µM): 280 nM
- IC50 (second compound 0.1 µM): 242 nM
- IC50 (second compound 0.316 µM): < 31.6 nM
- IC50 (second compound 1 µM): < 31.6 nM
- IC50 (second compound 3.16 µM): < 31.6 nM
- IC50 (second compound 10 µM): < 31.6 nM
- viability, T/C [1]: 88.2%
- viability, T/C [2]: 66.4%
- viability, T/C [3]: 46.1%
- viability, T/C [4]: 35.4%
- viability, T/C [5]: 26.4%
- viability, T/C [6]: 15.5%
- viability, T/C [7]: 72.1%
- viability, T/C [8]: 69.4%
- viability, T/C [9]: 40.8%
- viability, T/C [10]: 30.4%
- viability, T/C [11]: 20.1%
- viability, T/C [12]: 13.7%
- viability, T/C [13]: 7.06%
- viability, T/C [14]: 6.03%
- viability, T/C [15]: 4.86%
- viability, T/C [16]: 2.74%
- viability, T/C [17]: 2.03%
- viability, T/C [18]: 0.75%
- viability, T/C [19]: 0.18%
- viability, T/C [20]: 0.12%
- viability, T/C [21]: 0.13%
- viability, T/C [22]: 0.11%
- viability, T/C [23]: 0.07%
- viability, T/C [24]: 0.06%
- viability, T/C [25]: 0.43%
- viability, T/C [26]: 0.67%
- viability, T/C [27]: 0.28%
- viability, T/C [28]: 0.23%
- viability, T/C [29]: 0.24%
- viability, T/C [30]: 0.18%
- viability, T/C [31]: 0.28%
- viability, T/C [32]: 0.21%
- viability, T/C [33]: 0.23%
- viability, T/C [34]: 0.3%
- viability, T/C [35]: 0.29%
- viability, T/C [36]: 0.26%
